Measurements published in US12084451B2, “Compositions and methods for reducing tactile dysfunction, anxiety, and social impairment” (President and Fellows of Harvard College, priority 2018, dated 2024).
Where “and” joins values, the source holds several entries; their conditions need not be identical. Equal values may be shown once.

Tests used:
hGABAA α2β3γ2 = hGABAA α2β3γ2 (Homo sapiens, UniProt P18507+P28472+P47869); assay: hGABAA IonFlux HT PAM Assay, α2β3γ2; assay type: cell-based; details: for Mean Maximal Effect (% of Control): normalized to baseline peak current induced by EC20 GABA (0.8 μM) for 2 seconds
Sequence of hGABAA α2β3γ2 (P47869 29-451): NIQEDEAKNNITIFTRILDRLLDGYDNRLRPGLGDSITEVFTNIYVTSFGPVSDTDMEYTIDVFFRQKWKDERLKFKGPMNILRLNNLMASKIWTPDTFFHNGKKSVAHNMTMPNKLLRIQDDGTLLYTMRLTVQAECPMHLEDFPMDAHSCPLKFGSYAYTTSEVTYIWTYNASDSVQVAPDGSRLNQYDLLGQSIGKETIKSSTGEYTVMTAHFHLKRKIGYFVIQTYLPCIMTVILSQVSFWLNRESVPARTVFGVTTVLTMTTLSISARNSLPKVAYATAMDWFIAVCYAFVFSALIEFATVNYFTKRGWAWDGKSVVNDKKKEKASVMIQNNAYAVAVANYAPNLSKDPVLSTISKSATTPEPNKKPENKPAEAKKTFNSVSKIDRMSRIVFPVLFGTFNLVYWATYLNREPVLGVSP
Sequence of hGABAA α2β3γ2 (P28472 26-473): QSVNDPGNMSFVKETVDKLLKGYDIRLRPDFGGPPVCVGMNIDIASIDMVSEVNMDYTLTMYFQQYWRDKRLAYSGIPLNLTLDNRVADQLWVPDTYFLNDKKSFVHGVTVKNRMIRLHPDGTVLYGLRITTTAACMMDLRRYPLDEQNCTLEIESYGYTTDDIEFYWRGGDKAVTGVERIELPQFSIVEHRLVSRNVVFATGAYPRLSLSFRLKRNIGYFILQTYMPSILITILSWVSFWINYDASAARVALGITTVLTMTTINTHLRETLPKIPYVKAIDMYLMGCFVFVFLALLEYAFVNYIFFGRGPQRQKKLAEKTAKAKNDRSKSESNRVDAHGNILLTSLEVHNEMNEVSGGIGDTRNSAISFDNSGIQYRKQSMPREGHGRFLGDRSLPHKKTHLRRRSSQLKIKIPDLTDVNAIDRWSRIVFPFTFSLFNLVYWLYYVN
Sequence of hGABAA α2β3γ2 (P18507 40-475): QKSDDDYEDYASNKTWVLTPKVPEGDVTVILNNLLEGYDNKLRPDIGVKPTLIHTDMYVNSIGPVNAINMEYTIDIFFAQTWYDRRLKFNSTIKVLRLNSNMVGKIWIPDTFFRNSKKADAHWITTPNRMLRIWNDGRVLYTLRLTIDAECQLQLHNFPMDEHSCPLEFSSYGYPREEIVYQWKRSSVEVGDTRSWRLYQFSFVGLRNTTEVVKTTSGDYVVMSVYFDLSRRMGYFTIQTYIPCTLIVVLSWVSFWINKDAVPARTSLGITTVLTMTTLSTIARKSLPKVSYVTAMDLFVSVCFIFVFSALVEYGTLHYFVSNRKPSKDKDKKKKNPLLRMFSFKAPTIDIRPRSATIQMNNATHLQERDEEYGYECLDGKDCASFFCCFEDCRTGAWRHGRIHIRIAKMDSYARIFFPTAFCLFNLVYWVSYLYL
Text: (§1) Ligand-gated ion channels targeted were hGABAA α1β3γ2 and hGABAA α2β3γ2.
(§2) Electrophysiological assays conducted to profile nine (9) compounds for activities on the on channel targets listed above for Positive Allosteric Modulator (PAM) activities using the IonFlux HT electrophysiological platform.
The parameters measured are described in the Data Analysis section. […] Open circles represent data that has been excluded from the curve fitting. Where no curve fit was possible, n/c (not calculable) is listed.
(§3) All wells included a final DMSO concentration of 0.33% including all control wells.
(§4) All recordings were obtained from a holding potential of −60 mV. The compound addition sequence that was used for all additions was the same for all assays. […] The process was repeated with the next ascending concentration of test compound (FIG. 1).
(§5) All data were first exported to an Excel compatible data file and then analyzed using Graph Pad Prism software.

hGABAA α1β3γ2 = hGABAA α1β3γ2 (Homo sapiens, UniProt P14867+P18507+P28472); assay: hGABAA IonFlux HT PAM Assay, α1β3γ2; assay type: cell-based; details: for Mean Maximal Effect (% of Control): normalized to baseline peak current induced by EC20 GABA (1 μM) for 2 seconds
Sequence of hGABAA α1β3γ2 (P14867 28-456): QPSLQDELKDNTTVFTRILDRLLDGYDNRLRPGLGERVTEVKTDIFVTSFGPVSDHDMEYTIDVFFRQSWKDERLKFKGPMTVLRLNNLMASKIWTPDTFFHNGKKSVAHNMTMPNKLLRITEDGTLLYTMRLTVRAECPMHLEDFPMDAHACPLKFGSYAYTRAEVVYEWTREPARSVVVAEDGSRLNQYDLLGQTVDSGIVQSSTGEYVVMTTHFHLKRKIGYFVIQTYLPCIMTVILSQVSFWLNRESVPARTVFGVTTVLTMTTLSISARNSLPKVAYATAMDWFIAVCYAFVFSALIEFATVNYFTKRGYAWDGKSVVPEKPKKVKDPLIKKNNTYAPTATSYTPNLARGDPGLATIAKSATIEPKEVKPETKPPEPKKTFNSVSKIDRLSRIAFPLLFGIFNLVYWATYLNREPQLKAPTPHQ
Sequence of hGABAA α1β3γ2 (P28472 26-473): as the sequence (P28472 26-473) above
Sequence of hGABAA α1β3γ2 (P18507 40-475): as the sequence (P18507 40-475) above
Text: as §1, §2
The parameters measured are described in the Data Analysis section.
as §3, §4, §5

[1] = Estimated EC50, positive modulation of EC20 GABA current

## Cc1ccc(-c2nc3ccc(C)cn3c2CC(=O)N(C)C)cc1 [Zolpidem]
hGABAA α2β3γ2
  Mean Maximal Effect (% of Control): 304 % of Control
hGABAA α1β3γ2; 0.001 μM + EC20 GABA
  (%) Control mean: 110.7 % Control
  (%) Control n1: 116.2 % Control
  (%) Control n2: 105.2 % Control
hGABAA α1β3γ2; 0.01 μM + EC20 GABA
  (%) Control mean: 141.9 % Control
  (%) Control n1: 144.3 % Control
  (%) Control n2: 139.4 % Control
hGABAA α1β3γ2; 0.1 μM + EC20 GABA
  (%) Control mean: 267.3 % Control
  (%) Control n1: 278.5 % Control
  (%) Control n2: 256.1 % Control
hGABAA α1β3γ2; 1 μM + EC20 GABA
  (%) Control mean: 292.4 % Control
  (%) Control n1: 294.8 % Control
  (%) Control n2: 290.1 % Control
hGABAA α1β3γ2; 10 μM + EC20 GABA
  (%) Control mean: 318.1 % Control
  (%) Control n1: 326.1 % Control
  (%) Control n2: 310.1 % Control
hGABAA α1β3γ2; 100 μM + EC20 GABA
  (%) Control mean: 330.6 % Control
  (%) Control n1: 349.7 % Control
  (%) Control n2: 311.6 % Control
hGABAA α1β3γ2
  Mean Maximal Effect (% of Control): 331 % of Control

## CN1C(=O)CN=C(c2ccccc2)c2cc(Cl)ccc21 [Diazepam]
hGABAA α2β3γ2; 0.003 μM + EC20 GABA
  (%) Control mean: 116.0 % Control and 114.8 % Control and 100.4 % Control
  (%) Control n1: 113.8 % Control and 112.4 % Control and 113.2 % Control
  (%) Control n2: 118.1 % Control and 117.2 % Control and 87.7 % Control
hGABAA α2β3γ2; 0.01 μM + EC20 GABA
  (%) Control mean: 135.3 % Control and 124.0 % Control and 118.1 % Control
  (%) Control n1: 131.2 % Control and 123.3 % Control and 122.4 % Control
  (%) Control n2: 139.3 % Control and 124.7 % Control and 113.8 % Control
hGABAA α2β3γ2; 0.03 μM + EC20 GABA
  (%) Control mean: 162.5 % Control and 158.2 % Control and 142.3 % Control
  (%) Control n1: 155.2 % Control and 156.2 % Control and 150.5 % Control
  (%) Control n2: 169.9 % Control and 160.3 % Control and 134.2 % Control
hGABAA α2β3γ2; 0.1 μM + EC20 GABA
  (%) Control mean: 252.4 % Control and 255.8 % Control and 206.0 % Control
  (%) Control n1: 261.1 % Control and 261.6 % Control and 216.8 % Control
  (%) Control n2: 243.8 % Control and 249.9 % Control and 195.1 % Control
hGABAA α2β3γ2; 0.3 μM + EC20 GABA
  (%) Control mean: 253.5 % Control and 261.6 % Control and 214.1 % Control
  (%) Control n1: 267.8 % Control and 260.9 % Control and 230.4 % Control
  (%) Control n2: 239.3 % Control and 262.3 % Control and 197.8 % Control
hGABAA α2β3γ2; 1 μM + EC20 GABA
  (%) Control mean: 262.3 % Control and 269.3 % Control and 224.3 % Control
  (%) Control n1: 274.0 % Control and 285.9 % Control and 235.0 % Control
  (%) Control n2: 250.6 % Control and 252.8 % Control and 213.6 % Control
hGABAA α2β3γ2
  Mean Maximal Effect (% of Control): 262 % of Control and 269 % of Control and 224 % of Control
hGABAA α1β3γ2; 0.003 μM + EC20 GABA
  (%) Control mean: 124.0 % Control and 122.6 % Control and 125.3 % Control
  (%) Control n1: 123.6 % Control and 125.3 % Control and 121.6 % Control
  (%) Control n2: 124.3 % Control and 119.9 % Control and 129.0 % Control
hGABAA α1β3γ2; 0.01 μM + EC20 GABA
  (%) Control mean: 148.4 % Control and 139.6 % Control and 149.7 % Control
  (%) Control n1: 149.5 % Control and 141.4 % Control and 137.2 % Control
  (%) Control n2: 147.2 % Control and 137.8 % Control and 162.2 % Control
hGABAA α1β3γ2; 0.03 μM + EC20 GABA
  (%) Control mean: 186.5 % Control and 171.8 % Control and 193.2 % Control
  (%) Control n1: 182.7 % Control and 182.4 % Control and 169.0 % Control
  (%) Control n2: 190.3 % Control and 161.2 % Control and 217.4 % Control
hGABAA α1β3γ2; 0.1 μM + EC20 GABA
  (%) Control mean: 250.0 % Control and 234.6 % Control and 223.1 % Control
  (%) Control n1: 230.0 % Control and 227.4 % Control and 232.1 % Control
  (%) Control n2: 269.9 % Control and 241.8 % Control and 214.1 % Control
hGABAA α1β3γ2; 0.3 μM + EC20 GABA
  (%) Control mean: 298.9 % Control and 284.3 % Control and 269.3 % Control
  (%) Control n1: 265.9 % Control and 275.1 % Control and 262.8 % Control
  (%) Control n2: 331.8 % Control and 293.6 % Control and 275.8 % Control
hGABAA α1β3γ2; 1 μM + EC20 GABA
  (%) Control mean: 317.0 % Control and 310.4 % Control and 314.3 % Control
  (%) Control n1: 284.9 % Control and 296.1 % Control and 284.8 % Control
  (%) Control n2: 349.1 % Control and 324.7 % Control and 343.8 % Control
hGABAA α1β3γ2
  Mean Maximal Effect (% of Control): 317 % of Control and 310 % of Control and 314 % of Control

## CN1CCN(C(=O)O[C@H]2c3nccnc3C(=O)N2c2ccc(Cl)cn2)CC1 [Eszopiclone]
hGABAA α2β3γ2; [1]
  EC50: 164 nM
hGABAA α2β3γ2
  Mean Maximal Effect (% of Control): 213 % of Control
hGABAA α1β3γ2; 0.001 μM + EC20 GABA
  (%) Control mean: 105.7 % Control
  (%) Control n1: 97.8 % Control
  (%) Control n2: 113.5 % Control
hGABAA α1β3γ2; 0.01 μM + EC20 GABA
  (%) Control mean: 140.3 % Control
  (%) Control n1: 132.0 % Control
  (%) Control n2: 148.7 % Control
hGABAA α1β3γ2; 0.1 μM + EC20 GABA
  (%) Control mean: 252.4 % Control
  (%) Control n1: 242.3 % Control
  (%) Control n2: 262.5 % Control
hGABAA α1β3γ2; 1 μM + EC20 GABA
  (%) Control mean: 247.6 % Control
  (%) Control n1: 267.4 % Control
  (%) Control n2: 227.7 % Control
hGABAA α1β3γ2; 10 μM + EC20 GABA
  (%) Control mean: 252.4 % Control
  (%) Control n1: 262.3 % Control
  (%) Control n2: 242.5 % Control
hGABAA α1β3γ2; 100 μM + EC20 GABA
  (%) Control mean: 234.7 % Control
  (%) Control n1: 258.5 % Control
  (%) Control n2: 210.8 % Control
hGABAA α1β3γ2; [1]
  EC50: 12 nM
hGABAA α1β3γ2
  Mean Maximal Effect (% of Control): 252 % of Control
